In PubChem BioAssay AID588615 (The Scripps Research Institute Molecular Screening Center, 2011):
The source made the active and inactive calls.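 Rule for the calls: active = p38 protein level shifted by 30% or more versus DMSO-treated cells, either down or up; inactive = shift in p38 protein level below 30%.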

Tests used:
[1] = tested on: DLD-1 cells, p38 western blot, 24 h; test: p38 MAPK abundance shift in treated cells – DLD1 cells, chemiluminescent western blot, powder samples, counter-screen for KLF5 inhibitor project, late-stage follow-up (AID 588615); settings: measured here: p38 band fold change vs DMSO; at 10 µM
[2] = biological target: Mitogen-activated protein kinase 14 (Homo sapiens) (UniProt Q16539); test: as above; settings: DLD-1 cells, p38 western blot, 24 h; at 10 µM; stronger effect = higher value
Mitogen-activated protein kinase 14 (Homo sapiens), sequence (Q16539 whole entry, looked up): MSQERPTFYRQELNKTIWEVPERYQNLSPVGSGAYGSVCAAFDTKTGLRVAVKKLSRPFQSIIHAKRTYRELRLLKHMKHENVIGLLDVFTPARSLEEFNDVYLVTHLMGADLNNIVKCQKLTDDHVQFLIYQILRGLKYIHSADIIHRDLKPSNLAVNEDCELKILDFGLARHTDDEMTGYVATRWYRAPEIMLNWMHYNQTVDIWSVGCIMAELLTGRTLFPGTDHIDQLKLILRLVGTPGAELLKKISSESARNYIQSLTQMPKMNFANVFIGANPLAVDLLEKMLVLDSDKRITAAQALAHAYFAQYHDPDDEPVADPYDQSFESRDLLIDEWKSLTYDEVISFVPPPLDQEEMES

| Compound | fold change [1] | inhibition [2] |
| --- | --- | --- |
| CN(C(=O)CNC(=O)/C=C/c1cccc(Cl)c1)C1CCS(=O)(=O)C1 (centres undefined) | 1.05 | -5.46% (inactive) |
| CN(C(=O)COC(=O)/C=C/c1cccc([N+](=O)[O-])c1)C1CCS(=O)(=O)C1 (centres undefined) | – | 19.9% (inactive) |
| CN(C(=O)CNC(=O)/C=C/c1cccc(Cl)c1)C1CCS(=O)(=O)CC1 | – | 12.3% (inactive) |
